# Columns and labels:
# [1] = biological target: rat intestine derived lipase; experiment: Lipase inhibitory action test (Lipase kit S); format: biochemical; details: rat intestine acetone powder lipase, 30° C., 10 minutes reaction
# Procedure: In order to see the inhibitory action to lipase of the hydroxystilbene derivative, an inhibitory action test using rat intestine derived lipase was performed.
# As lipase, one obtained by suspending 100 mg of rat derived intestine acetone powder (manufactured by Sigma-Aldrich Japan) in 1 mL of 100 mM citric acid buffer (pH 6.0), stirred at 4° C. for 1 hour, centrifuging the same (at 15000 rpm for 45 minutes at 4° C.), and then diluting the supernatant by 1500 times was used as a lipase solution.
# As samples, p-coumaric acid, caffeic acid, sinapic acid, resveratrol, and the UHA1027, the UHA1028, and the UHA9021 which were already purified were used. With respect to the preparation of the samples, each compound was dissolved in DMSO, and then prepared in such a manner as to achieve 0.1 mM, 0.5 mM, 1 mM, 2 mM, and 4 mM.
# For measuring the activity, a “Lipase kit S” (Trade name, manufactured by Dainippon Pharmaceutical Co., Ltd.) was used. First, in accordance with a preparation method described in the catalog of the Lipase kit S, a color developing liquid was prepared. Reaction liquids in which 70 μl of the color developing liquid, 2 μl of an esterase inhibitor, 10 μl of the lipase solution, and 10 μl of the samples (Final concentration: 10 μM, 50 μM, 100 μM, 200 μM, 400 μM, and 1000 μM) were mixed were prepared, preincubated at 30° C. for 5 minutes, and then 8 μl of a substrate solution described in the catalog was added. Then, a reaction was started. After reacting for 10 minutes, 150 μl of a reaction stop liquid prepared in accordance with the preparation method described in the catalog of the Lipase kit S was added to stop the reaction. The resultant substance was subjected to a measurement of absorbancy at a wavelength of 415 nm. A reaction liquid to which only DMSO as the solvent of the sample was added was used as a positive control and one to which 10 μl of 100 mM citric acid buffer (pH 6.0) was added instead of the lipase solution was used as a negative control. From the relationship between the lipase inhibition rate calculated based on the data obtained therefrom and the concentration of each compound, the concentration IC50 at which the lipase activity is inhibited by 50% was calculated.
# [2] = system: SCC-4 cells (human oral cancer cells, ATCC); experiment: Cancer cell growth suppressing action using SCC-4 oral cancer cells (Cell counting kit-8); format: cell-based; details: 6.3-100 μM, Cell counting kit-8, DMSO negative control, read-out: Cell growth suppressing ability (IC50)
# Procedure: Next, in order to see the effect of the hydroxystilbene derivative to oral cancer cells, cancer cell growth suppressing action using SCC-4 cells (human oral cancer cells, ATCC) was tested.
# For culturing the SCC-4 cells, a DMEM/F-12 (1:1) culture medium (manufactured by GIBCO) containing 400 ng/mL hydrocortisone (manufactured by Sigma-Aldrich Japan), 1% antibiotic-antimycotic (manufactured by GIBCO), and 10% FBS (Foetal Bovine Serum, manufactured by ATCC) was used. For the test, a collagen I coat 96 well plate for cell culture (manufactured by Japan BD) was used, and SCC-4 cells whose number of cells was adjusted to be 5×10^5 cells/mL were seeded at 100 μL per well. The cells were cultured under the conditions of 37° C. and 5% CO2 for 24 hours, and were used for the test in a confluent state of 80% or higher.
# As samples, p-coumaric acid, ferulic acid, caffeic acid, sinapic acid, resveratrol, pterostilbene, piceatannol, and the UHA1027, the UHA1028, the UHA1123, the UHA1124, the UHA1125, the UHA7032, the UHA7033, the UHA7034, and the UHA9021 which were already purified were used. With respect to the preparation of the samples, each compound was dissolved in DMSO, and then prepared in such a manner as to achieve 0.63 mM, 1.25 mM, 2.5 mM, 5 mM, and 10 mM. The samples were added in such a manner that the final concentration in the SCC-4 cell culture solution was 6.3 μM, 12.5 μM, 25 μM, 50 μM, and 100 μM. Then, the test was started. A sample to which an equivalent amount of only DMSO as the solvent was added was used as a negative control.
# The number of viable cells was quantified by an MTT method using a “Cell counting kit-8” in the same manner as in Example 15, and the concentration IC50 at which the cell growth is suppressed by 50% was calculated.
# [3] = Physicochemical properties: solubility in solvents
# [4] = system: HL-60 cells (human promyelocytic leokemia cells); experiment: Cancer cell growth suppressing action using HL-60 cells (Cell counting kit-8); format: cell-based; details: 24 hours, 6.3-100 μM, viable cells vs DMSO only, read-out: Cell growth suppressing ability to HL-60 (IC50)
# Procedure: Next, in order to see the effect of the hydroxystilbene derivative to cancer cells, cancer cell growth suppressing action using HL-60 cells (human promyelocytic leokemia cells) was tested.
# For culturing the HL-60 cells, an enriched culture medium “RPMI-1640” (manufactured by Sigma-Aldrich Japan) containing 4 mM glutamine (L-Glutamine, manufactured by Sigma-Aldrich Japan) and 10% FBS (Foetal Bovine Serum, manufactured by Biological Industries) was used. For the test, a 96-well plate for cell culture (manufactured by Corning Japan) was used, and the HL-60 cells whose number of cells was adjusted to be 5×10^5 cells/mL were seeded at 100 μL per well
# As samples, p-coumaric acid, ferulic acid, caffeic acid, sinapic acid, resveratrol, pterostilbene, and the UHA1027, the UHA1028, the UHA1123, the UHA1124, the UHA1125, the UHA7032, the UHA7033, and the UHA9021 which were already purified were used. With respect to the preparation of the samples, each compound was dissolved in DMSO (Wako Pure Chemical Industries, Ltd.), and then adjusted in such a manner that the final concentration in the HL-60 cell culture solutions was 6.3 μM, 12.5 μM, 25 μM, 50 μM, and 100 μM. Then, the test was started.
# The number of viable cells was quantified by an MTT method using a “Cell counting kit-8” (manufactured by DOJINDO LABORATORIES). 24 hours after starting the test, 10 μL of a Cell counting kit-8 solution was added to each well, and then sufficiently stirred. After a shading reaction for 1 hour, the absorbancy was measured at a measurement wavelength of 450 nm using a plate leader (Biorad Laboratories, Inc., “BIO-RAD Model 680”). Then, the cell viability was calculated based on the obtained data. The cell viability is a value obtained by setting the number of viable cells of the culture liquid to which only DMSO as a solvent was added to 100%, and then calculating the number of viable cells under the concentration of each compound as a relative value. From the relationship between the concentration of each compound and the cell viability, the concentration IC50 (50% inhibition concentration) at which the cell growth is suppressed by 50% was calculated.
Structure (SMILES),IC50 [1],IC50 [2],Solubility: DMSO [3],Solubility: Chloroform [3],Solubility: Ethanol [3],Solubility: Ethyl acetate [3],Solubility: Methanol [3],Solubility: Water [3],IC50 [4]
"O=C(O)/C=C/c1ccc(O)c(O)c1 [Coffeic acid, caffeic acid, reference compound]",> 1000 µM,> 100 µM,,,,,,,> 100 µM
"COc1cc(/C=C/C(=O)O)ccc1O [Ferulic acid, ferulic acid, reference compound]",,> 100 µM,,,,,,,> 100 µM
"Oc1cc(O)cc(/C=C/c2ccc(O)c(O)c2)c1 [Piceatannol, piceatannol, reference compound]",,> 100 µM,,,,,,,
"COc1cc(/C=C/c2ccc(O)cc2)cc(OC)c1 [Pterostilbene, pterostilbene, reference compound]",,73.9 µM,,,,,,,60.4 µM
"Oc1ccc(C=Cc2cc(O)cc(O)c2)cc1 [Resveratrol, resveratrol, reference compound]",> 1000 µM,> 100 µM,,,,,,,76.5 µM
"COc1cc(/C=C/C(=O)O)cc(OC)c1O [Sinapic acid, sinapic acid, reference compound]",> 1000 µM,> 100 µM,,,,,,,> 100 µM
"O=C(O)/C=C/c1ccc(O)cc1 [p-coumaric acid, reference compound]",> 1000 µM,> 100 µM,,,,,,,> 100 µM

# Results, then the compound that gave them:
IC50 [1],IC50 [2],Solubility: DMSO [3],Solubility: Chloroform [3],Solubility: Ethanol [3],Solubility: Ethyl acetate [3],Solubility: Methanol [3],Solubility: Water [3],IC50 [4],Structure (SMILES)
452 µM,28.9 µM,Soluble,Soluble,Soluble,Soluble,Soluble,Poorly soluble,5.9 µM,"CC(c1ccc(O)c(O)c1)c1c(O)cc(/C=C/c2ccc(O)cc2)cc1O (single isomer, unassigned) [UHA1027]"
,49.6 µM,Soluble,Soluble,Soluble,Soluble,Soluble,Poorly soluble,,"CC(c1ccc(O)cc1)c1c(O)cc(/C=C/c2ccc(O)c(O)c2)cc1O (single isomer, unassigned) [UHA7034]"
331 µM,38.2 µM,Soluble,Soluble,Soluble,Soluble,Soluble,Poorly soluble,43.4 µM,"CC(c1ccc(O)cc1)c1c(O)cc(/C=C/c2ccc(O)cc2)cc1O (single isomer, unassigned) [UHA9021]"
510 µM,17.6 µM,Soluble,Soluble,Soluble,Soluble,Soluble,Poorly soluble,14.1 µM,COc1cc(C(C)c2c(O)cc(/C=C/c3ccc(O)cc3)cc2O)cc(OC)c1O (stereo not shown) [UHA1028]
,50.3 µM,Soluble,Soluble,Soluble,Soluble,Soluble,Poorly soluble,31.5 µM,COc1cc(C(C)c2c(O)cc(/C=C/c3ccc(O)cc3)cc2O)ccc1O (stereo not shown) [UHA1123]
,17.4 µM,Soluble,Soluble,Soluble,Soluble,Soluble,Poorly soluble,14.4 µM,COc1cc(C(C)c2c(O)cc(O)cc2/C=C/c2ccc(O)cc2)ccc1O (stereo not shown) [UHA1124]
,26.1 µM,Soluble,Soluble,Soluble,Soluble,Soluble,Poorly soluble,13.4 µM,COc1cc(C(C)c2c(O)cc(/C=C/c3ccc(O)cc3)c(C(C)c3ccc(O)c(OC)c3)c2O)ccc1O (stereo not shown) [UHA1125]
,37 µM,Soluble,Soluble,Soluble,Soluble,Soluble,Poorly soluble,31 µM,COc1cc(/C=C/c2ccc(O)cc2)c(C(C)c2ccc(O)cc2)c(OC)c1 (stereo not shown) [UHA7032]
,41.7 µM,Soluble,Soluble,Soluble,Soluble,Soluble,Poorly soluble,35.5 µM,COc1cc(/C=C/c2ccc(O)cc2)cc(OC)c1C(C)c1ccc(O)cc1 (stereo not shown) [UHA7033]
